The text below walks through data of patent US20250382293A1, “COMPOUNDS AND METHODS FOR YAP/TEAD MODULATION AND INDICATIONS THEREFOR” (OPNA BIO SA, priority 2023, published 2025).

Each structure is given as a SMILES string.

For this test, the system named is TEAD-dependent transcription. Nature of the test: Inhibitor activity against TEAD-dependent transcription in a cell-based reporter assay (MSTO-211H+12XGTIIC luciferase). The settings on record: Homo sapiens; MSTO-211H+12XGTIIC cells, 24 hours compound incubation, luminescence normalized to cell viability signal; read-out: MSTO-211H GMean IC50 (uM) Cell Assay Reporter Cell Variant: TEAD. From the text:
Determine Inhibitor Activity Against TEAD-Dependent Transcription in a Cell-Based Reporter Assay
The human mesothelioma cell line MSTO-211H was stably transfected with a pGL4.21 plasmid containing a synthetic promoter with 12 copies of the GTIIC TEAD response element that drives the expression of a luciferase reporter gene 1 using Lipofectamine transfection reagent (Thermo Fisher). Transfected cells were selected using puromycin and single cell clones expressing this construct (referred to as MSTO-211H+12XGTIIC) were generated by limiting dilution. MSTO-211H cells was characterized by genetic alterations in key components of the Hippo pathway^2, resulting in up-regulation of YAP/TEAD-mediated transcription. […] To evaluate TEAD inhibitors, the MSTO-211H+12XGTIIC cell line was seeded in a 96-well plate in 50 μL of culture media at 1×10^4 cells per well and incubated at 37° C. overnight. Serial dilutions of compounds (in total volume of 50 μL of culture media) were added to the cells and incubated at 37° C. for 24 hours. Each plate included cells treated with DMSO as high controls and cells treated with 20 μM of the reference compound K-975 (a known TEAD inhibitor) 3 as low controls. Cell viability was assayed by the addition of 25 μL of CellTiter-Fluor reagent (Promega) followed by a 30-minute incubation at 37° C. and quantification of the fluorescence signal (Ex400/Em505). Subsequently, luciferase expression was assayed by the addition of 25 μL of ONE-Glo reagent (Promega) followed by a 10-minute incubation at room temperature and quantification of the luminescence signal. The luminescence signal was normalized to the fluorescence signal to correct for any loss in cell viability over the 24-hour compound incubation period. The percentage of inhibition of normalized luminescence signal, indicative of compound-mediated inhibition of TEAD-dependent transcription, at individual compound concentrations relative to high and low controls was calculated. The data were analyzed by using nonlinear regression to generate IC50 values for individual compounds.
(A reporter such as luciferase makes a cellular process visible.)

One may read the IC50 as the concentration that inhibits the measured activity by half. On to `O=C(CCS(=O)(=O)C(F)(F)F)N1CCc2c(cccc2Oc2ccc(C(F)(F)F)nc2)C1` [O-0002, 1-(5-((6-(trifluoromethyl)pyridin-3-yl)oxy)-3,4-dihydroisoquinolin-2(1H)-yl)-3-((trifluoromethyl)sulfonyl)propan-1-one], for which the IC50 fell in the range of 0.001 to 10 µM.

Take `O=C(CCS(=O)(=O)C(F)(F)F)N1CCc2c(ncnc2Oc2ccc(C(F)(F)F)cc2)C1` [O-0003, 1-(4-(4-(trifluoromethyl)phenoxy)-5,8-dihydropyrido[3,4-d]pyrimidin-7(6H)-yl)-3-((trifluoromethyl)sulfonyl)propan-1-one]: the concentration for half-maximal inhibition (IC50) fell in the range of 0.001 to 10 µM.

Take `C=CC(=O)N1CCc2cc(Oc3ccc(C(F)(F)F)cc3)ccc2C1` [O-0058, 1-(6-(4-(trifluoromethyl)phenoxy)-3,4-dihydroisoquinolin-2(1H)-yl)prop-2-en-1-one]: the IC50 was in the range of 0.001 to 10 µM.

With `C=CS(=O)(=O)N1CCc2cc(Oc3ccc(C(F)(F)F)cc3)ccc2C1` [O-0064, 6-(4-(trifluoromethyl)phenoxy)-2-(vinylsulfonyl)-1,2,3,4-tetrahydroisoquinoline], the IC50 was in the range of 0.001 to 10 µM.

Turning to `O=C(CCl)N1CCc2cc(Oc3ccc(C(F)(F)F)cc3)ccc2C1` [O-0070, 2-chloro-1-(6-(4-(trifluoromethyl)phenoxy)-3,4-dihydroisoquinolin-2(1H)-yl)ethan-1-one], the IC50 lay within 0.001 to 10 µM.

On to `O=C(c1c[nH]c(C(F)(F)F)n1)N1CCc2cc(Oc3ccc(C(F)(F)F)cc3)ccc2C1` [O-0074, (2-(trifluoromethyl)-1H-imidazol-4-yl)(6-(4-(trifluoromethyl)phenoxy)-3,4-dihydroisoquinolin-2(1H)-yl)methanone], for which the half-inhibitory concentration (IC50) lay in the range of 0.001 to 10 µM.

Turning to `O=S(=O)(c1ccccc1)N1CCc2cc(Oc3ccc(C(F)(F)F)cc3)ccc2C1` [O-0104, 2-(phenylsulfonyl)-6-(4-(trifluoromethyl)phenoxy)-1,2,3,4-tetrahydroisoquinoline], the IC50 is 10 to 100 µM.

With `CCCNS(=O)(=O)c1nc(C(=O)N2CCc3c(cccc3Oc3ccc(C(F)(F)F)cc3)C2)cs1` [O-0105, N-propyl-4-(5-(4-(trifluoromethyl)phenoxy)-1,2,3,4-tetrahydroisoquinoline-2-carbonyl)thiazole-2-sulfonamide], the IC50 fell in the range of 0.001 to 10 µM.

In the case of `CS(=O)(=O)Nc1nc(C(=O)N2CCc3c(cccc3Oc3ccc(C(F)(F)F)c(F)c3)C2)co1` [O-0106, N-(4-(5-(3-fluoro-4-(trifluoromethyl)phenoxy)-1,2,3,4-tetrahydroisoquinoline-2-carbonyl)oxazol-2-yl)methanesulfonamide], the IC50 was 10 to 100 µM.

Take `CNS(=O)(=O)c1nc(C(=O)N2CCc3c(cccc3Oc3ccc(C(F)(F)F)cc3)C2)cs1` [O-0107, N-methyl-4-(5-(4-(trifluoromethyl)phenoxy)-1,2,3,4-tetrahydroisoquinoline-2-carbonyl)thiazole-2-sulfonamide]: the IC50 lay in the range of 0.001 to 10 µM.

Turning to `CCNS(=O)(=O)c1nc(C(=O)N2CCc3c(cccc3Oc3ccc(C(F)(F)F)cc3)C2)cs1` [O-0108, N-ethyl-4-(5-(4-(trifluoromethyl)phenoxy)-1,2,3,4-tetrahydroisoquinoline-2-carbonyl)thiazole-2-sulfonamide], the IC50 lay within 0.001 to 10 µM.

With `CS(=O)(=O)Nc1nc(C(=O)N2CCc3c(cccc3Oc3ccc(C(F)(F)F)c(F)c3)C2)cs1` [O-0109, N-(4-(5-(3-fluoro-4-(trifluoromethyl)phenoxy)-1,2,3,4-tetrahydroisoquinoline-2-carbonyl)thiazol-2-yl)methanesulfonamide], the IC50 is 10 to 100 µM.

For the compound `CS(=O)(=O)Nc1nc(C(=O)N2CCc3c(cccc3Oc3ccc(C(F)(F)F)cc3)C2)cs1` [O-0110, N-(4-(5-(4-(trifluoromethyl)phenoxy)-1,2,3,4-tetrahydroisoquinoline-2-carbonyl)thiazol-2-yl)methanesulfonamide], the IC50 lay in the range of 0.001 to 10 µM.

Regarding `CS(=O)(=O)N1CCCC(N2CCc3c(cccc3Oc3ccc(C(F)(F)F)cc3)C2)C1` (stereo not shown) [O-0111, 2-(1-(methylsulfonyl)piperidin-3-yl)-5-(4-(trifluoromethyl)phenoxy)-1,2,3,4-tetrahydroisoquinoline], the IC50 lay within 0.001 to 10 µM.

`O=S(=O)(N1CCC(N2CCc3c(cccc3Oc3ccc(C(F)(F)F)cc3)C2)C1)C(F)(F)F` (stereo not shown) [O-0112, 5-(4-(trifluoromethyl)phenoxy)-2-(1-((trifluoromethyl)sulfonyl)pyrrolidin-3-yl)-1,2,3,4-tetrahydroisoquinoline.]: the IC50 was 0.001 to 10 µM.

On to `C=CS(=O)(=O)N1CCC(N2CCc3c(cccc3Oc3ccc(C(F)(F)F)cc3)C2)C1` (stereo not shown) [O-0113, 5-(4-(trifluoromethyl)phenoxy)-2-(1-(vinylsulfonyl)pyrrolidin-3-yl)-1,2,3,4-tetrahydroisoquinoline], for which the IC50 is 0.001 to 10 µM.

Consider `C=CC(=O)N1CCC(N2CCc3c(cccc3Oc3ccc(C(F)(F)F)cc3)C2)C1` (stereo not shown) [O-0114, 1-(3-(5-(4-(trifluoromethyl)phenoxy)-3,4-dihydroisoquinolin-2(1H)-yl)pyrrolidin-1-yl)prop-2-en-1-one], for which the IC50 fell in the range of 0.001 to 10 µM.

`CS(=O)(=O)N1CC(N2CCc3c(cccc3Oc3ccc(C(F)(F)F)cc3)C2)C1` [O-0115, 2-(1-(methylsulfonyl)azetidin-3-yl)-5-(4-(trifluoromethyl)phenoxy)-1,2,3,4-tetrahydroiso-quinoline]: the IC50 was in the range of 0.001 to 10 µM.

As to `O=S(=O)(N1CC(N2CCc3c(cccc3Oc3ccc(C(F)(F)F)cc3)C2)C1)C(F)(F)F` [O-0116, 5-(4-(trifluoromethyl)phenoxy)-2-(1-((trifluoromethyl)sulfonyl)azetidin-3-yl)-1,2,3,4-tetrahydroisoquinoline], the IC50 lay in the range of 0.001 to 10 µM.

`C=CS(=O)(=O)N1CC(N2CCc3c(cccc3Oc3ccc(C(F)(F)F)cc3)C2)C1` [O-0118, 5-(4-(trifluoromethyl)phenoxy)-2-(1-(vinylsulfonyl)azetidin-3-yl)-1,2,3,4-tetrahydroisoquinoline.]: the IC50 is 10 to 100 µM.

Consider `C=CC(=O)N1CC(N2CCc3c(cccc3Oc3ccc(C(F)(F)F)cc3)C2)C1` [O-0119, 1-(3-(5-(4-(trifluoromethyl)phenoxy)-3,4-dihydroisoquinolin-2(1H)-yl)azetidin-1-yl)prop-2-en-1-one], for which the IC50 lay in the range of 0.001 to 10 µM.

On to `CS(=O)(=O)N1CCC(N2CCc3c(cccc3Oc3ccc(C(F)(F)F)cc3)C2)CC1` [O-0120, 2-(1-(methylsulfonyl)piperidin-4-yl)-5-(4-(trifluoromethyl)phenoxy)-1,2,3,4-tetrahydroisoquinoline], for which the IC50 is 0.001 to 10 µM.

Take `O=S(=O)(N1CCC(N2CCc3c(cccc3Oc3ccc(C(F)(F)F)cc3)C2)CC1)C(F)(F)F` [O-0121, 5-(4-(trifluoromethyl)phenoxy)-2-(1-((trifluoromethyl)sulfonyl)piperidin-4-yl)-1,2,3,4-tetrahydroisoquinoline]: the IC50 was 0.001 to 10 µM.

Take `C=CS(=O)(=O)N1CCC(N2CCc3c(cccc3Oc3ccc(C(F)(F)F)cc3)C2)CC1` [O-0122, 5-(4-(trifluoromethyl)phenoxy)-2-(1-(vinylsulfonyl)piperidin-4-yl)-1,2,3,4-tetrahydroisoquinoline]: the IC50 is 10 to 100 µM.

With `C=CC(=O)N1CCC(N2CCc3c(cccc3Oc3ccc(C(F)(F)F)cc3)C2)CC1` [O-0123, 1-(4-(5-(4-(trifluoromethyl)phenoxy)-3,4-dihydroisoquinolin-2(1H)-yl)piperidin-1-yl)prop-2-en-1-one], the IC50 is 0.001 to 10 µM.
